According to patent US20220056075A1, “METHOD FOR TREATING OPIOID USE DISORDER” (THE ADMINISTRATORS OF THE TULANE EDUCATIONAL FUND, priority 2019, published 2022):

Columns and labels:
[1] = system: Male Sprague Dawley rats; experiment: Locomotor sensitization during CPP conditioning sessions; assay type: in vivo, rat; conditions: 1.8, 3.2, 5.6 mg/Kg i.v., 5 daily injections, compared to vehicle
Procedure: (§1) Conditioned Place Preference (CPP) and locomotor activity: Standard CPP chambers (TSE; Chesterfield, Mo.) were used to measure baseline activity and conditioning trials. Baseline activity was measured over 2 days with 4 trials per day (2 in the AM, and 2 in the PM) lasting 20 min each. […] Conditioning trials were conducted for 5 days and tested in an unbiased manner such that drug/environment pairings were counterbalanced for time of drug injection (AM or PM) and compartment (preferred or non-preferred) based on baseline activity. […] This indicates a lack of carry-over effects of drug between sessions. One day following the last conditioning trial, a 20 min test trial was conducted in the same manner as baseline trials in which rats were free to explore both compartments. Change in time spent exploring the drug-paired compartment (test-baseline) was used to indicate preference (or aversion) to the compartment. Approximately 20 min following the final session, rats were perfused and brain samples were taken for immunohistochemical analysis (below). Locomotor activity was assessed by infrared light beams located in the conditioning compartments and the start box. […] Data were recorded in meters and an assessment of locomotor sensitization was made by subtracting the first session from the final session.
(§2) Experimenters were blinded to treatment groups.

[2] = system: Male Sprague Dawley rats; experiment: Conditioned place preference (CPP), 5-day procedure; assay type: in vivo, rat; conditions: 5 days of conditioning, 1.8, 3.2, 5.6 mg/Kg i.v.
Procedure: as §1, §2

[3] = system: Male Sprague-Dawley rats; experiment: Reinstatement of morphine-induced conditioned place preference; conditions: priming dose 1.8 mg/Kg, 20 min, vs baseline
Procedure: Male Sprague-Dawley rats were exposed to a conditioned place preference (CPP) apparatus for two sessions to determine baseline (BL) preference for 2 distinct, unbiased chambers. […] The animals then underwent extinction procedures consisting of confinement for 45 min in the previously drug- and vehicle-paired chambers for 7 days.

[4] = system: male and female rats; experiment: Naloxone-induced conditioned place aversion (CPA); assay type: in vivo, rat; conditions: i.v. morphine 5.6 mg/Kg or ZH853 4.2 mg/Kg, naloxone 1 mg/Kg s.c. 4 h later
Procedure: Four hours later they received s.c. naloxone (1 mg/Kg) and were confined to one side of the apparatus (counterbalanced) for 20 min. The following day the animals received vehicle-then-saline rather than drug-then-naloxone. This cycle (drug+4 h+nlx+next day vehicle+saline) was repeated once, and the next day the animals had access to the entire apparatus (Post-cond).
To assess whether ZH853 induces the negative affect typical of opioid withdrawal, the conditioned place aversion (CPA) test was conducted.

[5] = system: male and female mice; conditions: acute, equi-antinociceptive doses
[6] = cumulative doses producing maximum antinociceptive effects; cited from earlier work

Structure (SMILES): NC(=O)CNC(=O)[C@@H]1CCC(=O)NCCCC[C@@H](NC(=O)[C@@H](N)Cc2ccc(O)cc2)C(=O)N[C@@H](Cc2c[nH]c3ccccc23)C(=O)N[C@@H](Cc2ccccc2)C(=O)N1 [ZH853, Tyr-c[D-Lys-Trp-Phe-Glu]-Gly-NH2]
- locomotor sensitization (LS), day 5 minus day 1 [1]: did not produce LS at any dose tested
- conditioned place preference (CPP) or aversion [2]: did not produce CPP (or aversion) at any dose
- reinstatement of morphine CPP after extinction [3]: scores not significantly different from baseline
- naloxone-induced place aversion [4]: did not produce a place aversion
- distance traveled (AUC) [5]: did not affect the distance traveled
- motor impairment on the Rotarod [6]: lack of motor impairment
